Experimental data reported in patent US20240238284A1, “COMPOUNDS AND COMPOSITIONS FOR THE TREATMENT OF MPNST” (Novartis AG, priority 2021, published 2024).

Assays:
[1] = tested on: Rb-positive cell lines derived from diverse cancer types; experiment: Rb phosphorylation and cell cycle progression in Rb-positive cell lines; type: cell-based; conditions: more than 40 Rb-positive cell lines
NF1-MPNST PDX models = experiment: tumor growth in NF1-MPNST patient-derived xenograft (PDX) models in NRG mice; type: in vivo; conditions: oral gavage, TNO155 7.5 mg/kg, ribociclib 75 mg/kg once daily, up to 42 days
Description: The PDX models of Example 1 were developed and characterized according to Dehrner, et al., JCI Insight 2021: 6(6):e146351 and Pollard, K., et al., Sci Data, 2020; 7:184). NRG (NOD-Rag1^null IL 2rg^null, NOD rag gamma) mice are used for all experiments.
Tumor response, survival and toxicity data were collected and analyzed. To form tumors, 1-2 million NF1-MPNST PDX-derived cells (JH-2-031, JH-2-079, JH-2-002, WU-225, WU-386, or WU-545)) in 50% Matrigel (BD Biosciences) were injected subcutaneously in 4- to 6-week-old female NRG mice. The tumors were measured and mice weighed twice weekly once tumors began to form. Drugs were given beginning when tumors reached 150-200 mm^3. Mice were treated with vehicle, single agent (A or B or C) or combination (A+B or B+C) for up to 42 days. Each group consisted of three to five mice. Tumor volume was calculated using the formula: V=L×W2 (π/6), where L=longest diameter and W=width.

p-ERK in WU-386 tumors = experiment: pharmacodynamic p-ERK levels in WU-386 PDX tumors; type: in vivo, mice; conditions: WU-386 tumors collected 4-hour post end-point treatment (4 weeks)
[2] = tested on: trametinib resistant lines (ST8814Res and NF90.8Res); experiment: cell number by trypan blue exclusion, trametinib resistant lines; type: cell-based; conditions: TNO155 0.3, 1, 3 μM, ribociclib 1, 3 μM, about 1 week
Description: (§1) Cell numbers were counted using trypan blue exclusion assay (Sigma-Aldrich) and normalized to the DMSO control.

[3] = tested on: ten native NF1-MPNST cell lines; experiment: cell number by trypan blue exclusion, native NF1-MPNST cell lines; type: cell-based; conditions: TNO155 0.3, 1, 3 μM; ribociclib 1, 3 μM; about 1 week
Description: as §1

## CN(C)C(=O)c1cc2cnc(Nc3ccc(N4CCNCC4)cn3)nc2n1C1CCCC1 [Ribociclib, 7-cyclopentyl-N,N-dimethyl-2-((5-(piperazin-1-yl)pyridin-2-yl)amino)-7H-pyrrolo[2,3-d]pyrimidine-6-carboxamide]
[1]
  Retinoblastoma protein (Rb) phosphorylation and G1 to S phase cell cycle progression: inhibited Retinoblastoma protein (Rb) phosphorylation and interfered with G1 to S phase cell cycle progression

## C[C@@H]1OCC2(CCN(c3cnc(Sc4ccnc(N)c4Cl)c(N)n3)CC2)[C@@H]1N [TNO155, (3S,4S)-8-(6-amino-5-((2-amino-3-chloropyridin-4-yl)thio)pyrazin-2-yl)-3-methyl-2-oxa-8-azaspiro[4.5]decan-4-amine]
NF1-MPNST PDX models
  anti-tumor activity / tumor growth inhibition in PDX models: substantial anti-tumor activity as a single agent
p-ERK in WU-386 tumors
  p-ERK levels in tumors: decrease in p-ERK levels
[2]
  cell number response normalized to DMSO control: limited activity
[3]
  cell number response normalized to DMSO control: partial sensitivity
